Reference: PMC11486602 (The New phytologist, 2024)

What was measured:
[1] = target: T1, PROTODERMAL FACTOR2 (PDF2) (Arabidopsis thaliana, UniProt Q93V99); test: microscale thermophoresis with […] DOPC/LysoPC […] liposomes; type: binding
T1 sequence (Q93V99 244-476 limits assumed): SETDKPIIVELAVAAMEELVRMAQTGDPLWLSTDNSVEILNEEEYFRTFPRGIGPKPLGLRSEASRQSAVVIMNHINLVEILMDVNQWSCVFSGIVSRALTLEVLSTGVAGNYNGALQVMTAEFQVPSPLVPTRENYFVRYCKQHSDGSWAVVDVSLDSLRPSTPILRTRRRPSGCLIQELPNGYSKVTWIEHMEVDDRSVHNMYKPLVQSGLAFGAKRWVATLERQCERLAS

[2] = target: PROTODERMAL FACTOR2 (PDF2), pdf2(START)^L467P (Arabidopsis thaliana, UniProt Q93V99, L467P); test: as above; type: binding
Sequence of PROTODERMAL FACTOR2 (PDF2), pdf2(START)^L467P (Q93V99 244-476 L467P): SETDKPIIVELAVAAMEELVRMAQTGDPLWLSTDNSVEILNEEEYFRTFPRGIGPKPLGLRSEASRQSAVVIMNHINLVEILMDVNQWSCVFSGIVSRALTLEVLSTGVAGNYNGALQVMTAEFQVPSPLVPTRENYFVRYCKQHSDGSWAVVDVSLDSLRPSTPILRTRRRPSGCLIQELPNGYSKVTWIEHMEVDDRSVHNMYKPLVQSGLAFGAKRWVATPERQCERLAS

## LysoPC 18:1
[1]
  Kd: 17 µM
[2]
  Kd: 200 µM
